Earlier results on three sequences are cited in patent publication US20170280761A1, “METHOD TO CONCENTRATE APOA-1 MIMETIC PEPTIDES TRANSGENICALLY EXPRESSED IN PLANTS” (The Regents of the University of California, priority 2014, published 2017).

The test system of one data set is ovarian cancer. The conditions noted are these: for levels of lysophosphatidic acid (LPA) / tumor growth: administered either orally or by injection.
The test system of data set [1] is epithelial ovarian cancer cells.
Another data set concerns colon cancer. The conditions noted are these: 4F added to mouse chow.
For the next data set, the system named is C57BL/6J-Apc Min/+ mice. The settings on record: 4F in mouse chow.
Data set [2] relates to Hypoxia-inducible factor-1 (HIF-1). The settings on record: addition of the 4F peptide.
Data set [3] concerns the target T1, scavenger receptor A (SR-A) (Homo sapiens, UniProt P21757).
T1 sequence (P21757 1-451): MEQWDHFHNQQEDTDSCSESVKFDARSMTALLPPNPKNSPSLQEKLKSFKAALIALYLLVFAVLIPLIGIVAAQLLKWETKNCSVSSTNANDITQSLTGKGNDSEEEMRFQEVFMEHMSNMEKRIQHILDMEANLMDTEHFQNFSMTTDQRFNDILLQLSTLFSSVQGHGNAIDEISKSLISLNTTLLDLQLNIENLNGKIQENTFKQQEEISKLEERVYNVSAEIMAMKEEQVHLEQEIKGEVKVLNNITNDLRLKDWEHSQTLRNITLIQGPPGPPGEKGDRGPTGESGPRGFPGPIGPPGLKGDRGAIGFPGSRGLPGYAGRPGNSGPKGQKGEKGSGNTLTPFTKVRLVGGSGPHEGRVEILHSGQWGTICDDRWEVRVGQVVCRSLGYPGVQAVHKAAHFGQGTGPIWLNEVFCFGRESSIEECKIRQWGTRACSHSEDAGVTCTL

The next data set deals with tumor invasiveness. The conditions noted are these: administration of the 4F peptide.
The conditions of data set [4]: mouse, in vivo.

Regarding “DWFKAFYDKVAEKFKEAF (Synthetic recombinantly expressed peptide) [4F]”, in the data set with ovarian cancer, the “levels of lysophosphatidic acid (LPA)” value is on record as “decreased” and the tumor growth result is recorded as “decreased”. Besides, the “expression of HIF-1 alpha in mouse ovarian tumor tissues” value with ovarian cancer (administration of the 4F peptide) was “markedly decreased”. Besides, in data set [1], the “antioxidant enzyme manganese superoxide dismutase (MnSOD)” value is given as “upregulated”; the “proliferation and ability to form tumors” value is “inhibited”. In the data set on colon cancer, the “plasma LPA levels” value is listed as “decreased”, the tumor angiogenesis entry is reported as “decreased” and the tumor burden result is “decreased”. Moreover, in the data set on C57BL/6J-Apc Min/+ mice, the LPA levels entry is “decreased”; the “number and size of tumors in the intestinal tract” value was “reduced”. Moreover, the “HIF-1 alpha induced in vitro by LPA” value in data set [2] is “decreased”. Besides, the “inhibition of SR-A” value in data set [3] is “potent inhibitor”. Besides, the tumor invasiveness result in the data set with tumor invasiveness is recorded as “inhibited”.

As to “DWLKAFYDKFFEKFKEFF (Synthetic recombinantly expressed peptide) [6F]”, in data set [4], the “amount of intact 6F peptide found in the small intestine” value was 15.6±7.4 µg 6F per 200 mg small intestine, the “intact 6F peptide in the plasma” value is listed as “not in the plasma” and the “intact 6F peptide in the small intestine” value was “found”.

Consider “DWLKAFYDKVFEKFKEFF (Synthetic recombinantly expressed peptide) [5F]”, for which, in the data set on ovarian cancer, the “levels of lysophosphatidic acid (LPA)” value is “decreased” and the tumor growth entry was “decreased”.
